Here are results for 27 molecules from patent US10173991B2, “Sulfone amide linked benzothiazole inhibitors of endothelial lipase” (BRISTOL-MYERS SQUIBB COMPANY, priority 2014, dated 2019).

Chain of Endothelial lipase (EL) (Q9Y5X9 21-500): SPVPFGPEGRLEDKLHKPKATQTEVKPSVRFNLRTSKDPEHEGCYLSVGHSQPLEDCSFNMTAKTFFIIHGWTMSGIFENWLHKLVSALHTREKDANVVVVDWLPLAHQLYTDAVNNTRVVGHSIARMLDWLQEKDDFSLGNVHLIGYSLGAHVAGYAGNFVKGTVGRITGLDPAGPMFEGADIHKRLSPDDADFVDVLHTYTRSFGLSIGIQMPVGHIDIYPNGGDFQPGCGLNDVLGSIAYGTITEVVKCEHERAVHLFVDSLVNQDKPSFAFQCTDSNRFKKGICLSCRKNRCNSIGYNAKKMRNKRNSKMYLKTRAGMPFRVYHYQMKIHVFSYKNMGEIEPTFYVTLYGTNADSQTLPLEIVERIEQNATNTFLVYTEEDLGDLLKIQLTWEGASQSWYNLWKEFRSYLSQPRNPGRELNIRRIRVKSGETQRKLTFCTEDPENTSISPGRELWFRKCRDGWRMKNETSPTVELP

In this experiment the target is Endothelial lipase (EL) (Homo sapiens (Human), UniProt Q9Y5X9). Briefly: Endothelial lipase (EL) enzymatic assay with fluorescent substrate A10070 in DMPG vesicles. It is filed as biochemical. The method in brief:
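EL from conditioned medium of HT-1080 cells engineered to overexpress endogenous EL; HL partially purified from conditioned medium of HL-overexpressing COS cells. Enzyme preincubated with compound 30 min at 37° C in 50 mM HEPES pH 8.0, 50 mM NaCl, 1 mM CaCl2; DMPG vesicles carrying FRET substrate (0.11 mole fraction) then added.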
Usually IC50 stands for the concentration that gives 50% inhibition. Read a low IC50 as inhibition by little substance. As for `CS(=O)(=O)C(C(=O)NCC(=O)NC1CC1)c1nc2cc(F)c(-c3ccc(C(N)=O)c(Cl)c3)cc2s1` (stereo not drawn) [Example 328, 2-chloro-4-[2-({[(cyclopropyl-carbamoyl)methyl]carbamoyl} (methanesulfonyl)methyl)-5-fluoro-1,3-benzothiazol-6-yl]benzamide], the midpoint of inhibition, the IC50, lay at 22 nM.
`COCCS(=O)(=O)C(C(=O)NCC(=O)NC1CC1)c1nc2ccc(-c3ccc(C(N)=O)cc3)cc2s1` (stereo not drawn) [Example 329, 4-[2-({[(cyclopropyl-carbamoyl)methyl]carbamoyl}(2-methoxyethane-sulfonyl)methyl)-1,3-benzothiazol-6-yl]benzamide] registered an IC50 of 46 nM.
Then `CS(=O)(=O)C(C(=O)NCC(=O)NC1CC1)c1nc2cc(F)c(-c3ccc(C(N)=O)cc3)cc2s1` (stereo not drawn) [Example 331, 4-[2-({[(cyclopropyl-carbamoyl)methyl]carbamoyl} (methanesulfonyl)methyl)-5-fluoro-1,3-benzothiazol-6-yl]benzamide], with 4 nM; and `COCCS(=O)(=O)C(C(=O)NCC(=O)NC1CC1)c1nc2cc(-c3ccc(CNC(C)=O)cc3)ccc2s1` (stereo not drawn) [Example 332, N-[(cyclopropyl-carbamoyl)methyl]-2-{5-[4-(acetamidomethyl)phenyl]-1,3-benzothiazol-2-yl}-2-(2-methoxyethane-sulfonyl)acetamide], with 10 nM; and `CS(=O)(=O)C(C(=O)NCC(=O)NC1CC1)c1nc2cc(-c3ccc(F)nc3)ccc2s1` (stereo not drawn) [Example 333, N-[(cyclopropyl-carbamoyl)methyl]-2-[5-(6-fluoropyridin-3-yl)-1,3-benzothiazol-2-yl]-2-methanesulfonyl-acetamide], with 13 nM.
As for `COCCNC(=O)c1ccc(-c2ccc3sc(C(C(=O)NCC(=O)NC4CC4)S(=O)(=O)CCOC)nc3c2)cc1` (stereo not drawn) [Example 334, 4-[2-({[(cyclopropyl-carbamoyl)methyl]carbamoyl}(2-methoxyethane-sulfonyl)methyl)-1,3-benzothiazol-5-yl]-N-(2-methoxyethyl) benzamide], the midpoint of inhibition, the IC50, lay at 15 nM.
Then `COCCS(=O)(=O)C(C(=O)NCC(=O)NC1CC1)c1nc2cc(-c3cncnc3)ccc2s1` (stereo not drawn) [Example 335, N-[(cyclopropyl-carbamoyl)methyl]-2-(2-methoxyethane-sulfonyl)-2-[5-(pyrimidin-5-yl)-1,3-benzothiazol-2-yl]acetamide], with 16 nM; and `COCCS(=O)(=O)C(C(=O)NCC(=O)NC1CC1)c1nc2cc(-c3ccn(C)c(=O)c3)ccc2s1` (stereo not drawn) [Example 336, N-[(cyclopropyl-carbamoyl)methyl]-2-(2-methoxyethane-sulfonyl)-2-[5-(1-methyl-2-oxo-1,2-dihydropyridin-4-yl)-1,3-benzothiazol-2-yl]acetamide], with 21 nM.
With `COCCS(=O)(=O)C(C(=O)NCC(=O)NC1CC1)c1nc2cc(-c3ccc(C(=O)N4CCOCC4)cc3)ccc2s1` (stereo not drawn) [Example 337, N-[(cyclopropyl-carbamoyl)methyl]-2-(2-methoxyethane-sulfonyl)-2-{5-[4-(morpholine-4-arbonyl)phenyl]-1,3-benzothiazol-2-yl}acetamide], inhibition was half-maximal at 38 nM (IC50).
Next, `COCCS(=O)(=O)C(C(=O)NCC(=O)NC1CC1)c1nc2cc(-c3ccc(COC)cc3)ccc2s1` (stereo not drawn) [Example 338, N-[(cyclopropyl-carbamoyl)methyl]-2-(2-methoxyethane-sulfonyl)-2-{5-[4-(methoxymethyl)phenyl]-1,3-benzothiazol-2-yl}acetamide]: 42 nM; `COCCS(=O)(=O)C(C(=O)NCC(=O)NC1CC1)c1nc2cc(-c3ccccc3)ccc2s1` (stereo not drawn) [Example 339, N-[(cyclopropyl-carbamoyl)methyl]-2-(2-methoxyethane-sulfonyl)-2-(5-phenyl-1,3-benzothiazol-2-yl)acetamide]: 215 nM.
The molecule `COCCS(=O)(=O)C(C(=O)NCC(=O)NC1CC1)c1nc2ccc(-c3ccc4c(c3)CNC4=O)cc2s1` (stereo not drawn) [Example 340, N-[(cyclopropyl-carbamoyl)methyl]-2-(2-methoxyethane-sulfonyl)-2-[6-(1-oxo-2,3-dihydro-1H-isoindol-5-yl)-1,3-benzothiazol-2-yl]acetamide] displayed an IC50 of 9 nM. This IC50 is about 24-fold lower than that of the molecule before.
Next, `COCCS(=O)(=O)C(C(=O)NCC(=O)NC1CC1)c1nc2ccc(-c3ccc4c(c3)COC4=O)cc2s1` (stereo not drawn) [Example 341, N-[(cyclopropyl-carbamoyl)methyl]-2-(2-methoxyethane-sulfonyl)-2-[6-(1-oxo-1,3-dihydro-2-benzofuran-5-yl)-1,3-benzothiazol-2-yl]acetamide]: 11 nM; `COCCS(=O)(=O)C(C(=O)NCC(=O)NC1CC1)c1nc2cc(-c3ccn(C)c(=O)c3)c(F)cc2s1` (stereo not drawn) [Example 342, N-[(cyclopropyl-carbamoyl)methyl]-2-[6-fluoro-5-(1-methyl-2-oxo-1,2-dihydropyridin-4-yl)-1,3-benzothiazol-2-yl]-2-(2-methoxyethane-sulfonyl)acetamide]: 23 nM; `COCCS(=O)(=O)C(C(=O)NCC(=O)NC1CC1)c1nc2ccc(-c3ccnc(OC)c3F)cc2s1` (stereo not drawn) [Example 343, N-[(cyclopropyl-carbamoyl)methyl]-2-[6-(3-fluoro-2-methoxypyridin-4-yl)-1,3-benzothiazol-2-yl]-2-(2-methoxyethane-sulfonyl)acetamide]: 48 nM.
Consider `COCCS(=O)(=O)C(C(=O)NCC(=O)NC1CC1)c1nc2ccc(-c3ccc4c(c3)C(=O)NC4)cc2s1` (stereo not drawn) [Example 344, N-[(cyclopropyl-carbamoyl)methyl]-2-(2-methoxyethane-sulfonyl)-2-[6-(3-oxo-2,3-dihydro-1H-isoindol-5-yl)-1,3-benzothiazol-2-yl]acetamide], for which the IC50 is 98 nM.
Regarding `COCCS(=O)(=O)C(C(=O)NCC(=O)NC1CC1)c1nc2ccc(-c3cnc(Cl)n3C)cc2s1` (stereo not drawn) [Example 345, 2-[6-(2-chloro-1-methyl-1H-imidazol-5-yl)-1,3-benzothiazol-2-yl]-N-[(cyclopropyl-carbamoyl)methyl]-2-(2-methoxyethane-sulfonyl)acetamide], half-maximal inhibition (IC50) required 135 nM.
With `COCCS(=O)(=O)C(C(=O)NCC(=O)NC1CC1)c1nc2cc(-c3cnc(C)nc3)c(F)cc2s1` (stereo not drawn) [Example 346, N-[(cyclopropyl-carbamoyl)methyl]-2-[6-fluoro-5-(2-methylpyrimidin-5-yl)-1,3-benzothiazol-2-yl]-2-(2-methoxyethane-sulfonyl)acetamide], the IC50 was determined as 6 nM.
Consider `COCCS(=O)(=O)C(C(=O)NCC(=O)NC1CC1)c1nc2cc(-c3ccc4[nH]c(=O)ccc4c3)c(F)cc2s1` (stereo not drawn) [Example 347, N-[(cyclopropyl-carbamoyl)methyl]-2-[6-fluoro-5-(2-oxo-1,2-dihydroquinolin-6-yl)-1,3-benzothiazol-2-yl]-2-(2-methoxyethane-sulfonyl)acetamide], for which inhibition was half-maximal at 18 nM (IC50). This IC50 is about 3-fold higher than that of the molecule before.
Consider `COCCS(=O)(=O)C(C(=O)NCC(=O)NC1CC1)c1nc2cc(-c3cnc(C4CC4)nc3)c(F)cc2s1` (stereo not drawn) [Example 348, N-[(cyclopropyl-carbamoyl)methyl]-2-[5-(2-cyclopropyl-pyrimidin-5-yl)-6-fluoro-1,3-benzothiazol-2-yl]-2-(2-methoxyethane-sulfonyl)acetamide], for which the IC50 is 10 nM. This IC50 lies about 1.8-fold lower than the previous one.
Next, `COCCS(=O)(=O)C(C(=O)NCC(=O)NC1CC1)c1nc2cc(-c3ccc4c(c3)CC(=O)N4)c(F)cc2s1` (stereo not drawn) [Example 349, N-[(cyclopropyl-carbamoyl)methyl]-2-[6-fluoro-5-(2-oxo-2,3-dihydro-1H-indol-5-yl)-1,3-benzothiazol-2-yl]-2-(2-methoxyethane-sulfonyl)acetamide]: 42 nM; `COCCS(=O)(=O)C(C(=O)NCC(=O)NC1CC1)c1nc2cc(-c3ccc4c(c3)C(=O)NC4)c(F)cc2s1` (stereo not drawn) [Example 350, N-[(cyclopropyl-carbamoyl)methyl]-2-[6-fluoro-5-(3-oxo-2,3-dihydro-1H-isoindol-5-yl)-1,3-benzothiazol-2-yl]-2-(2-methoxyethane-sulfonyl)acetamide]: 18 nM.
Next, `COCCS(=O)(=O)C(C(=O)NCC(=O)NC1CC1)c1nc2cc(-c3cnnc(C)c3)c(F)cc2s1` (stereo not drawn) [Example 351, N-[(cyclopropyl-carbamoyl)methyl]-2-[6-fluoro-5-(6-methylpyridazin-4-yl)-1,3-benzothiazol-2-yl]-2-(2-methoxyethane-sulfonyl)acetamide]: 36 nM; `COCCS(=O)(=O)C(C(=O)NCC(=O)NCCOC(C)C)c1nc2cc(-c3ccc(F)nc3)c(F)cc2s1` (stereo not drawn) [Example 352, 2-[6-fluoro-5-(6-fluoropyridin-3-yl)-1,3-benzothiazol-2-yl]-2-(2-methoxyethane-sulfonyl)-N-({[2-(propan-2-yloxy)ethyl]carbamoyl}methyl)acetamide]: 14 nM; `COCCS(=O)(=O)C(C(=O)NCC(=O)NCCOC(C)C)c1nc2cc(-c3ccn(C)c(=O)c3)c(F)cc2s1` (stereo not drawn) [Example 353, 2-[6-fluoro-5-(1-methyl-2-oxo-1,2-dihydropyridin-4-yl)-1,3-benzothiazol-2-yl]-2-(2-methoxyethane-sulfonyl)-N-({[2-(propan-2-yloxy)ethyl]carbamoyl}methyl)acetamide]: 34 nM.
Take `COCCS(=O)(=O)C(C(=O)NCC(=O)NCCOC(C)C)c1nc2cc(-c3ccc4c(c3)CNC4=O)c(F)cc2s1` (stereo not drawn) [Example 354, 2-[6-fluoro-5-(1-oxo-2,3-dihydro-1H-isoindol-5-yl)-1,3-benzothiazol-2-yl]-2-(2-methoxyethane-sulfonyl)-N-({[2-(propan-2-yloxy)ethyl]carbamoyl}methyl)acetamide]: the IC50 came out at 24 nM.
As for `COCCS(=O)(=O)C(C(=O)NCC(=O)NCCOC(C)C)c1nc2cc(-c3ccc(=O)n(C)c3)c(F)cc2s1` (stereo not drawn) [Example 355, 2-[6-fluoro-5-(1-methyl-6-oxo-1,6-dihydropyridin-3-yl)-1,3-benzothiazol-2-yl]-2-(2-methoxyethane-sulfonyl)-N-({[2-(propan-2-yloxy)ethyl]carbamoyl}methyl)acetamide], the IC50 came out at 36 nM. Compared with the last molecule, the IC50 is about 1.5-fold higher.
